{
  "source": "paper PMC5350573",
  "about": "(Redox Biology, 2017)",
  "assay_type_in_all_cases": "biochemical",
  "key": {"catalase [1]": {"biological_target": "T1, catalase (Bos taurus, UniProt P00432)", "T1 sequence (P00432 2-527)": "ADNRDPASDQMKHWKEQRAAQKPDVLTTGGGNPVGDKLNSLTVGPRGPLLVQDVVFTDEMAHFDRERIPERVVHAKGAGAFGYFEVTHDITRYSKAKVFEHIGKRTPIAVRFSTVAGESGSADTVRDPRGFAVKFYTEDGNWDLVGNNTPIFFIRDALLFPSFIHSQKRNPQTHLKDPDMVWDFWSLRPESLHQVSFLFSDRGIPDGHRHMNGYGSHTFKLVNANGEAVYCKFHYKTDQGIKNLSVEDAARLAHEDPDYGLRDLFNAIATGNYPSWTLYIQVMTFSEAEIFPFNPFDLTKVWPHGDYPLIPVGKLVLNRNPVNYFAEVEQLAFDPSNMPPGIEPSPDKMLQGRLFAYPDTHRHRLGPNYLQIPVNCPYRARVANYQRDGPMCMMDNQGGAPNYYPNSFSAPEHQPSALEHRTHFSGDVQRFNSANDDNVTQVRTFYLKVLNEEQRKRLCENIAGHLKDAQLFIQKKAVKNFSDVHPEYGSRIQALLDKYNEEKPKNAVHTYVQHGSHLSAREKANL", "assay": "amperometric", "settings": "read-out: % increase at 400 μM"}, "catalase [2]": {"biological_target": "T1, catalase", "assay": "amperometric H2S release from DTT by isolated catalase"}, "catalase [3]": {"biological_target": "T1, catalase", "assay": "amperometric H2S release from SO2"}},
  "data": [
    {"compound": "NC(=O)C1=CN([C@@H]2O[C@H](COP(=O)(O)OP(=O)(O)OC[C@H]3O[C@@H](n4cnc5c(N)ncnc54)[C@H](OP(=O)(O)O)[C@@H]3O)[C@@H](O)[C@H]2O)C=CC1", "note": "[NADPH]", "values": [
      {"measurement": "activation at 400 µM", "setting": "catalase [1]", "value": "~50", "unit": "%"}
    ]},
    {"compound": "O[C@H](CS)[C@H](O)CS", "note": "(racemic) [DTT, dithiothreitol]", "values": [
      {"measurement": "amperometric H2S release from DTT by isolated catalase", "setting": "catalase [2]", "value": "catalase concentration-dependent increase in H2S release (Fig. 7B) confirming that catalase reacts directly with DTT to generate H2S"}
    ]},
    {"compound": "O=S=O", "note": "[SO2, sulfur dioxide]", "values": [
      {"measurement": "EC50", "setting": "catalase [3]", "value": "~ between 300 μM and 1 mM"}
    ]}
  ]
}
